# Toxic doses and inconclusive results are not listed.
# Test system: CD2F1 mice, L1210 leukemia ip, survival T/C
# Assay: NCI In Vivo Anticancer Drug Screen. Data for tumor model L1210 Leukemia (intraperitoneal) in CD2F1 (CDF1) mice
# Settings: higher = longer survival
# Method in brief: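 Read-out first: treated-group measurement over vehicle-control measurement, expressed as a ratio. Animals bore a transplanted tumor line and were dosed with compound or vehicle.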
structure (smiles),measurement,setting,value
O=C(O)c1nc2ccccc2c(=O)[nH]1,T/C,"endpoint: mean survival time, dose: 50.0 mg/kg/injection, schedule: Q04DX002 (ip), vehicle: saline with Tween-80",93 % of control
same,T/C,"endpoint: mean survival time, dose: 100.0 mg/kg/injection, schedule: Q01DX001 (ip), vehicle: saline with Tween-80",102 % of control
same,T/C,"endpoint: mean survival time, dose: 100.0 mg/kg/injection, schedule: Q04DX002 (ip), vehicle: saline with Tween-80",93 % of control
same,T/C,"endpoint: mean survival time, dose: 200.0 mg/kg/injection, schedule: Q01DX001 (ip), vehicle: saline with Tween-80",92 % of control
same,T/C,"endpoint: mean survival time, dose: 200.0 mg/kg/injection, schedule: Q04DX002 (ip), vehicle: saline with Tween-80",93 % of control
CN(C)/N=N/c1[nH]cnc1C(N)=O.[Cl][Cu][Cl],T/C,"endpoint: mean survival time, dose: 1.56 mg/kg/injection, schedule: Q04DX003 (ip), vehicle: water",97 % of control
same,T/C,"endpoint: mean survival time, dose: 2.0 mg/kg/injection, schedule: Q01DX001 (ip), vehicle: distilled water + Tween-80",96 % of control
same,T/C,"endpoint: mean survival time, dose: 3.13 mg/kg/injection, schedule: Q04DX003 (ip), vehicle: water",106 % of control
same,T/C,"endpoint: mean survival time, dose: 4.0 mg/kg/injection, schedule: Q01DX001 (ip), vehicle: distilled water + Tween-80",94 % of control
same,T/C,"endpoint: mean survival time, dose: 6.25 mg/kg/injection, schedule: Q04DX003 (ip), vehicle: water",95 % of control
same,T/C,"endpoint: mean survival time, dose: 8.0 mg/kg/injection, schedule: Q01DX001 (ip), vehicle: distilled water + Tween-80",99 % of control
same,T/C,"endpoint: mean survival time, dose: 12.5 mg/kg/injection, schedule: Q04DX003 (ip), vehicle: water",94 % of control
same,T/C,"endpoint: mean survival time, dose: 16.0 mg/kg/injection, schedule: Q01DX001 (ip), vehicle: distilled water + Tween-80",88 % of control
same,T/C,"endpoint: mean survival time, dose: 32.0 mg/kg/injection, schedule: Q01DX001 (ip), vehicle: distilled water + Tween-80",92 % of control
Cn1c(=O)c2c(nc(N3CCOCC3)n2CCCNCC(O)c2ccc(O)c(O)c2)n(C)c1=O (stereo not given),T/C,"endpoint: mean survival time, dose: 12.5 mg/kg/injection, schedule: Q01DX005 (ip), vehicle: water",102 % of control
same,T/C,"endpoint: mean survival time, dose: 25.0 mg/kg/injection, schedule: Q01DX005 (ip), vehicle: water",96 % of control
same,T/C,"endpoint: mean survival time, dose: 50.0 mg/kg/injection, schedule: Q01DX005 (ip), vehicle: water",97 % of control
same,T/C,"endpoint: mean survival time, dose: 100.0 mg/kg/injection, schedule: Q01DX005 (ip), vehicle: water",96 % of control
same,T/C,"endpoint: mean survival time, dose: 200.0 mg/kg/injection, schedule: Q01DX005 (ip), vehicle: water",92 % of control
CCCC(=O)OCC1OC(n2ccc(O)cc2=O)C(O)C1O (stereo not given),T/C,"endpoint: median survival time, dose: 44.0 mg/kg/injection, schedule: Q01DX009 (ip), vehicle: saline + Tween-80 + alcohol",171 % of control
same,T/C,"endpoint: median survival time, dose: 67.0 mg/kg/injection, schedule: Q01DX009 (ip), vehicle: saline + Tween-80 + alcohol",174 % of control
same,T/C,"endpoint: median survival time, dose: 100.0 mg/kg/injection, schedule: Q01DX009 (ip), vehicle: saline + Tween-80 + alcohol",168 % of control
same,T/C,"endpoint: median survival time, dose: 150.0 mg/kg/injection, schedule: Q01DX009 (ip), vehicle: saline + Tween-80 + alcohol",162 % of control
C[S+]1C=C(c2ccccc2)C=C(c2ccccc2)C1 (stereo not given),T/C,"endpoint: mean survival time, dose: 7.5 mg/kg/injection, schedule: Q01DX001 (ip), vehicle: saline with Tween-80",114 % of control
O=C1CSC(=O)N1 (tested in a mixture with another compound),T/C,"endpoint: mean survival time, dose: 100.0 mg/kg/injection, schedule: Q01DX001 (ip), vehicle: saline",96 % of control
same,T/C,"endpoint: mean survival time, dose: 200.0 mg/kg/injection, schedule: Q01DX001 (ip), vehicle: saline",96 % of control
same,T/C,"endpoint: mean survival time, dose: 400.0 mg/kg/injection, schedule: Q01DX001 (ip), vehicle: saline",107 % of control
O=C(O)/C=C/c1cccs1,T/C,"endpoint: mean survival time, dose: 50.0 mg/kg/injection, schedule: Q01DX009 (ip), vehicle: Klucel (hydroxypropylcellulose) (HPC)",101 % of control
same,T/C,"endpoint: mean survival time, dose: 100.0 mg/kg/injection, schedule: Q01DX009 (ip), vehicle: Klucel (hydroxypropylcellulose) (HPC)",101 % of control
same,T/C,"endpoint: mean survival time, dose: 200.0 mg/kg/injection, schedule: Q01DX009 (ip), vehicle: Klucel (hydroxypropylcellulose) (HPC)",96 % of control

# Reference: PubChem BioAssay AID256 (DTP/NCI, 2004)
